Counter-ions that a name gives are not always drawn.

Data on 14 compounds can be found in patent US20100004240A1, “Indole Compounds” (Glaxo Group Limited, priority 2006, published 2010).

Assay [1] has as its target T1, human prostanoid EP1 receptor (Homo sapiens, UniProt P34995).
T1 construct: expressed in transfected cells; host or cells: CHO-K1 cells, membrane fraction
T1 sequence (P34995 1-402): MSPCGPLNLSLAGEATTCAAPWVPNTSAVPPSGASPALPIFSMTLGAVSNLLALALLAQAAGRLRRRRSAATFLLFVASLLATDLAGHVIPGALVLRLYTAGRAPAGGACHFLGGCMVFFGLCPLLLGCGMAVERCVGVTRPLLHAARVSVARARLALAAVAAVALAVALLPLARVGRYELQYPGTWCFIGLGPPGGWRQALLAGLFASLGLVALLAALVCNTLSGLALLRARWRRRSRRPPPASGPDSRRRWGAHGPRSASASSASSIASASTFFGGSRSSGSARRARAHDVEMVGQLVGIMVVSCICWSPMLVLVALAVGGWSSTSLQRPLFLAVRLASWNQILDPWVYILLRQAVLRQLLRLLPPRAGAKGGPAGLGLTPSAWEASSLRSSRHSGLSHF
The experiment in a line: binding assay for the human prostanoid EP1 receptor (competition with [3H]-PGE2). Particulars: [3H]-PGE2 competition, CHO-K1 cell membranes expressing human EP1; averages of a number of experiments; read-out: pIC50 value (converted). The protocol:
Competition assay using [^3H]-PGE2.
Compound potencies are determined using a radioligand binding assay. In this assay compound potencies are determined from their ability to compete with tritiated prostaglandin E2 ([^3H]-PGE2) for binding to the human EP1 receptor.
This assay utilises Chinese hamster ovary-K1 (CHO-K1) cells into which a stable vector containing the EP1 cDNA has previously been transfected. Cells are cultured in suitable flasks containing culture medium such as DMEM:F-12 supplemented with 10% v/v foetal calf serum, 2 mM L-glutamine, 0.25 mg/ml geneticin, 10 μg/ml puromycin and 10 μM indomethacin.
Cells are detached from the culture flasks by incubation in calcium and magnesium free phosphate buffered saline containing 1 mM disodium ethylenediaminetetraacetic acid (Na2EDTA) and 10 μM indomethacin for 5 min. The cells are isolated by centrifugation at 250×g for 5 mins and suspended in an ice cold buffer such as 50 mM Tris, 1 mM Na2EDTA, 140 mM NaCl, 10 μM indomethacin (pH 7.4). The cells are homogenised using a Polytron tissue disrupter (2×10s burst at full setting), centrifuged at 48,000×g for 20 mins and the pellet containing the membrane fraction is washed (optional) three times by suspension and centrifugation at 48,000×g for 20 mins. The final membrane pellet is suspended in an assay buffer such as 10 mM 2-[N-morpholino]ethanesulphonic acid, 1 mM Na2EDTA, 10 mM MgCl2 (pH 6). Aliquots are frozen at −80° C. until required.
For the binding assay the cell membranes, competing compounds and [^3H]-PGE2 (3 nM final assay concentration) are incubated in a final volume of 100 μl for 30 min at 30^O C. All reagents are prepared in assay buffer. Reactions are terminated by rapid vacuum filtration over GF/B filters using a Brandell cell harvester. The filters are washed with ice cold assay buffer, dried and the radioactivity retained on the filters is measured by liquid scintillation counting in Packard TopCount scintillation counter.
The data are analysed using non linear curve fitting techniques to determine the concentration of compound producing 50% inhibition of specific binding (IC50).

The target in the next assay is T2, human EP1 receptor (Homo sapiens, UniProt P34995).
T2 construct: expressed in transfected cells; host or cells: CHO-K1 cells
T2 sequence (P34995 1-402): T1 sequence (P34995 1-402)
The experiment in a line: human EP1 calcium mobilisation assay. Format: cell-based. Particulars: for Ki: antagonism of PGE2-induced calcium mobilisation, CHO-K1 cells expressing human EP1, averages of a number of experiments, read-out: functional pKi value (converted). The protocol: Briefly, the antagonist properties of compounds are assessed by their ability to inhibit the mobilisation of intracellular calcium ([Ca^2+]i) in response to activation of EP1 or EP3 receptors by the natural agonist hormone prostaglandin E2 (PGE2). Increasing concentrations of antagonist reduce the amount of calcium that a given concentration of PGE2 can mobilise. The net effect is to displace the PGE2 concentration-effect curve to higher concentrations of PGE2. The amount of calcium produced is assessed using a calcium-sensitive fluorescent dye such as Fluo-4, AM and a suitable instrument such as a Fluorimetric Imaging Plate Reader (FLIPR). Increasing amounts of [Ca^2+]i produced by receptor activation increase the amount of fluorescence produced by the dye and give rise to an increasing signal. The signal may be detected using the FLIPR instrument and the data generated may be analysed with suitable curve-fitting software.
The human EP1 or EP3 calcium mobilisation assay (hereafter referred to as ‘the calcium assay’) utilises Chinese hamster ovary-K1 (CHO-K1) cells into which a stable (pClN; BioTechniques 20 (1996): 102-110) vector containing either EP1 or EP3 cDNA has previously been transfected. Cells are cultured in suitable flasks containing culture medium such as DMEM:F-12 supplemented with 10% v/v foetal calf serum, 2 mM L-glutamine, 0.25 mg/ml geneticin, 100 μM flurbiprofen and 10 μg/ml puromycin.
For assay, cells are harvested using a proprietary reagent that dislodges cells such as Versene. Cells are re-suspended in a suitable quantity of fresh culture media for introduction into a 384-well plate. Following incubation for 24 hours at 37° C. the culture media is replaced with a medium containing Fluo-4 and the detergent pluronic acid, and a further incubation takes place. Concentrations of compounds are then added to the plate in order to construct concentration-effect curves. This may be performed on the FLIPR in order to assess the agonist properties of the compounds. Concentrations of PGE2 are then added to the plate in order to assess the antagonist properties of the compounds.
The data so generated may be analysed by means of a computerised curve-fitting routine. The concentration of compound that elicits a half-maximal inhibition of the calcium mobilisation induced by PGE2 (pIC50) may then be estimated.
In general terms: Calcium assays in cells follow changes in intracellular calcium, usually with a dye or a luminescent sensor.

For the compound `O=C(NC1CCOCC1)c1coc(-c2cn(CC3CC3)c3ccc(Cl)cc23)n1` [Example 1, 2-[5-Chloro-1-(cyclopropylmethyl)-1H-indol-3-yl]-N-(tetrahydro-2H-pyran-4-yl)-1,3-oxazole-4-carboxamide], the IC50 in assay [1] is at most 1000 nM. For the same compound, the “activity in the calcium mobilisation assay” value at human EP1 receptor (human EP1, CHO-K1 cells) was “inactive”. Consider `O=C(NN1CCOCC1)c1coc(-c2cn(CC3CC3)c3ccc(Cl)cc23)n1` [Example 2, 2-[5-Chloro-1-(cyclopropylmethyl)-1H-indol-3-yl]-N-4-morpholinyl-1,3-oxazole-4-carboxamide], for which, in assay [1], the IC50 was at most 316 nM. In addition, the Ki at human EP1 receptor is at most 1000 nM.

Take `O=C(NN1CCOCC1)c1coc(-c2cn(C3CCCC3)c3ccc(Cl)cc23)n1` [Example 3, 2-(5-Chloro-1-cyclopentyl-1H-indol-3-yl)-N-4-morpholinyl-1,3-oxazole-4-carboxamide]: the IC50 in assay [1] was at most 316 nM. For the same compound, the Ki at human EP1 receptor is at most 316 nM. Regarding `O=C(c1coc(-c2cn(C3CCCC3)c3ccc(Cl)cc23)n1)N1CCOCC1` [Example 4, 5-Chloro-1-cyclopentyl-3-[4-(4-morpholinylcarbonyl)-1,3-oxazol-2-yl]-1H-indole], the IC50 in assay [1] is at most 1000 nM. The Ki at human EP1 receptor was at most 1000 nM. Regarding `CC(C)Cn1cc(-c2nc(C(=O)Nc3cccnc3)co2)c2cc(Cl)ccc21` [Example 5, 2-[5-Chloro-1-(2-methylpropyl)-1H-indol-3-yl]-N-3-pyridinyl-1,3-oxazole-4-carboxamide], the IC50 in assay [1] is at most 316 nM. Also, the Ki on human EP1 receptor was at most 316 nM. In the case of `CC(C)Cn1cc(-c2nc(C(=O)Nc3ccccn3)co2)c2cc(Cl)ccc21` [Example 6, 2-[5-Chloro-1-(2-methylpropyl)-1H-indol-3-yl]-N-2-pyridinyl-1,3-oxazole-4-carboxamide], the Ki on human EP1 receptor was at most 316 nM.

On to `CC(C)Cn1cc(-c2nc(C(=O)NCC3CCOCC3)co2)c2cc(Cl)ccc21` [Example 7, 2-[5-Chloro-1-(2-methylpropyl)-1H-indol-3-yl]-N-(tetrahydro-2H-pyran-4-ylmethyl)-1,3-oxazole-4-carboxamide], for which the IC50 in assay [1] is at most 316 nM. In addition, the Ki on human EP1 receptor was at most 316 nM.

For the compound `CC(C)Cn1cc(-c2nc(C(N)=O)co2)c2cc(Cl)ccc21` [Example 8, 2-[5-Chloro-1-(2-methylpropyl)-1H-indol-3-yl]-1,3-oxazole-4-carboxamide], the IC50 in assay [1] was at most 316 nM. The Ki on human EP1 receptor is at most 316 nM. Take `CC(C)Cn1cc(-c2nc(-c3nc4ccccc4[nH]3)co2)c2cc(Cl)ccc21` [Example 9, 2-{2-[5-Chloro-1-(2-methylpropyl)-1H-indol-3-yl]-1,3-oxazol-4-yl}-1H-benzimidazole hydrochloride]: the IC50 in assay [1] is at most 316 nM. Also, on human EP1 receptor, the Ki is at most 316 nM.

For `CC(C)Cn1cc(-c2nc(-c3nc4ncccc4[nH]3)co2)c2cc(Cl)ccc21` [Example 10, 2-{2-[5-Chloro-1-(2-methylpropyl)-1H-indol-3-yl]-1,3-oxazol-4-yl}-1H-imidazo[4,5-b]pyridine], the IC50 in assay [1] is at most 316 nM. On human EP1 receptor, the Ki is at most 1000 nM. In the case of `CC(C)Cn1cc(-c2nc(-c3nc4cc(CO)ccc4[nH]3)co2)c2cc(Cl)ccc21` [Example 11, (2-{2-[5-Chloro-1-(2-methylpropyl)-1H-indol-3-yl]-1,3-oxazol-4-yl}-1H-benzimidazol-5-yl)methanol], the IC50 in assay [1] is at most 316 nM. Also, the Ki on human EP1 receptor is at most 316 nM. In the case of `CC(C)Cn1cc(-c2nc(-c3nc4ccc(CN5CCCCC5)cc4[nH]3)co2)c2cc(Cl)ccc21` [Example 12, 2-{2-[5-Chloro-1-(2-methylpropyl)-1H-indol-3-yl]-1,3-oxazol-4-yl}-5-(1-piperidinylmethyl)-1H-benzimidazole dihydrochloride], the IC50 in assay [1] is at most 316 nM. On the same count and under the same terms, with `CC(C)Cn1cc(-c2nc(-c3nc4ccc(CN5CCCC5)cc4[nH]3)co2)c2cc(Cl)ccc21` [Example 13, 2-{2-[5-Chloro-1-(2-methylpropyl)-1H-indol-3-yl]-1,3-oxazol-4-yl}-5-(1-pyrrolidinylmethyl)-1H-benzimidazole dihydrochloride] the figure was at most 316 nM. Still for that read-out and setting: with `CCNCc1ccc2nc(-c3coc(-c4cn(CC(C)C)c5ccc(Cl)cc45)n3)[nH]c2c1` [Example 14, [(2-{2-[5-Chloro-1-(2-methylpropyl)-1H-indol-3-yl]-1,3-oxazol-4-yl}-1H-benzimidazol-5-yl)methyl]ethylamine dihydrochloride] the figure was at most 1000 nM.
